The results in this text go back to patent US9726664B2, “Animal model for diabetic complications” (NEDERLANDSE ORGANISATIE VOOR …, priority 2010, dated 2017).

SMILES strings stand for the structures.

For test [1], the system named is LDLr−/− mice. Briefly: Intervention study in LDLr−/− mice on 45 En % Lard diet: body weight and adipose depots. Format: in vivo. The settings on record: for gonadal fat mass: drug mixed into diet from week 9 until week 16, FIG. 6. The procedure: Based on the findings of the above experiment, an intervention study was designed. The middle dose (45 En % lard diet) was defined to be the optimal diet to use for interventions with drugs since ALAT was not increased Thereby putative adverse liver effects of drugs can still be detected. Several anti-diabetic interventions (drugs and life-style) were tested according to the experimental set-up described above.
LDLr−/− mice (12 weeks old) were fed 45 En % Lard diet for 9 weeks to establish a prediabetic state (as described above and including visceral adiposity, hypertriglyceridemia, elevated glucose and insulin, chronic inflammation). After these 9 weeks, the interventions were started and continued until week 16. Drugs were mixed into lard diet and administered orally via the feed. One group of mice was sacrifice at the start of the intervention at week 9 for reference. Another control group was fed chow throughout the 16 weeks (serving as internal reference). The groups were as follows:
(§1) Body weight and food intake were measured regularly and blood samples were taken at t=0, t=6, t=9, t=12, t=14 and t=15 weeks. Spot urine was collected at t=0, t=8 and t=15 weeks. At the end of the study, the mice were sacrificed and the various organs were isolated and weighed and stored at −80 C and/or in formalin. Livers were processed for microarray analysis. More specifically, the same lobe of each liver was used for RNA extraction to prepare mRNA of microarray quality according to an established protocol (Kleemann et al., Genome Biology, 2007).

Test [2] relates to LDLr−/− mice. Briefly: Intervention study in LDLr−/− mice on 45 En % Lard diet: microalbuminuria (albumine/creatinine ratio in spot urine). Format: in vivo. The settings on record: compared to high fat treated control animals not treated with drugs, ratio as μg albumine per mg creatinine, drug mixed into 45 En % Lard diet from week 9 until week 16, FIG. 7. The procedure: Several anti-diabetic interventions (drugs and life-style) were tested according to the experimental set-up described above.
After these 9 weeks, the interventions were started and continued until week 16. Drugs were mixed into lard diet and administered orally via the feed. One group of mice was sacrifice at the start of the intervention at week 9 for reference. Another control group was fed chow throughout the 16 weeks (serving as internal reference). The groups were as follows:
as §1
Microalbuminuria is a hallmark of diabetic nephropathy and was determined by measuring the concentration of albumine and creatinine in spot urine collected at various time points during the experiment. Subsequently the albumine/creatinine ratio was calculated, viz. the amount of albumine expressed in μg per mg creatinine (FIG. 7).

As for `O=S(=O)(c1ccccc1)N(CC(F)(F)F)c1ccc(C(O)(C(F)(F)F)C(F)(F)F)cc1` [LXR agonist], the gonadal fat mass result in the test on LDLr−/− mice [1] is on record as “lowered”. Further, in the test on LDLr−/− mice [1] (drug mixed into diet, orally via feed, from week 9 until week 16, FIG. 5), the body weight result is on record as “reduced”.
For `O=C(O)c1ccccc1O` [salicylate], the gonadal fat mass entry in the test with LDLr−/− mice [1] is on record as “lowered”. Besides, in the test with LDLr−/− mice [2], the “albumine/creatinine ratio (microalbuminuria)” value (from here on “albumine/creatinine ratio”) is recorded as “significantly improved”.
Consider `CN(C)C(=N)N=C(N)N` [metformin], for which the “albumine/creatinine ratio” value in the test with LDLr−/− mice [2] was “significantly improved”.
As to `COc1ccc(Cl)cc1C(=O)NCCc1ccc(S(=O)(=O)NC(=O)NC2CCCCC2)cc1` [glibenclamide, Glibenclamide], the gonadal fat mass entry in the test with LDLr−/− mice [1] is “lowered”. Further, the “albumine/creatinine ratio” value in the test on LDLr−/− mice [2] was “significantly improved”.
As for `CC(C)c1c(C(=O)Nc2ccccc2)c(-c2ccccc2)c(-c2ccc(F)cc2)n1CC[C@@H](O)C[C@@H](O)CC(=O)O` [atorvastatin], the “albumine/creatinine ratio” value in the test with LDLr−/− mice [2] was “significantly improved”.
